According to US7709004B2, “Method of producing an HIV-1 immune response” (Bionor Immuno AS, priority 1999, dated 2010):
Bridge positions count the residues as written; N and C are the ends. Ends that are not written are not given here. I, II: the chains in the order shown.

System: NMFI female mice
Assay: toxicity of the dipeptide by injection to mice
Type: in vivo
Conditions: 100 μg per kg bodyweight, test solution 4 mg/ml in 0.9% NaCl
Experimental: The dipeptide of Example 13 was diluted in 0.9% NaCl) to a test solution concentration of 4 mg/ml. The peptide was administered by injection to NMFI female mice in a dose of 100 μg per kg bodyweight.

I: WIIPGLNPLVGGGKLYSPTSILCG-NH2 / II: KALGPGATLQTPWTACQGVG-NH2 (disulfide I:23-II:16) [Example 13]
toxicological effects: No toxicological effects were observed
